Assay: xn = mol fraction of the nth substance listed
Conditions: Liquid

CCOC(F)(C(F)(F)C(F)(F)C(F)(F)F)C(F)(C(F)(F)F)C(F)(F)F (stereo not given) [2-trifluoromethyl-3-ethoxydodecafluorohexane] + CC(C)OC(C)C
viscosity [mPa·s]
Conditions | x1 = 0.25 | x1 = 0.375 | x1 = 0.5 | x1 = 0.625 | x1 = 0.75 | x1 = 1
293.15 K, 100 kPa, Capillary tube (Ostwald / Ubbelohde) method | 0.483 | 0.573 | 0.685 | 0.818 | 0.985 | 1.369
293.15 K, 20000 kPa, Falling or rolling sphere viscometry | 0.602 | 0.751 | 0.939 | 1.1 | 1.315 | 1.894
293.15 K, 40000 kPa, Falling or rolling sphere viscometry | 0.732 | 0.944 | 1.198 | 1.412 | 1.727 | 2.645
293.15 K, 60000 kPa, Falling or rolling sphere viscometry | 0.883 | 1.171 | 1.49 | 1.802 | 2.255 | 3.622
293.15 K, 80000 kPa, Falling or rolling sphere viscometry | 1.058 | 1.435 | 1.82 | 2.291 | 2.936 | 4.894
293.15 K, 100000 kPa, Falling or rolling sphere viscometry | 1.26 | 1.741 | 2.197 | 2.902 | 3.814 | 6.553
313.15 K, 100 kPa, Capillary tube (Ostwald / Ubbelohde) method | 0.386 | 0.441 | 0.526 | 0.617 | 0.735 | 0.983
313.15 K, 20000 kPa, Falling or rolling sphere viscometry | 0.476 | 0.598 | 0.701 | 0.821 | 0.979 | 1.356
313.15 K, 40000 kPa, Falling or rolling sphere viscometry | 0.587 | 0.748 | 0.894 | 1.059 | 1.292 | 1.869
313.15 K, 60000 kPa, Falling or rolling sphere viscometry | 0.712 | 0.917 | 1.118 | 1.339 | 1.668 | 2.51
313.15 K, 80000 kPa, Falling or rolling sphere viscometry | 0.853 | 1.104 | 1.376 | 1.669 | 2.119 | 3.31
313.15 K, 100000 kPa, Falling or rolling sphere viscometry | 1.014 | 1.312 | 1.677 | 2.058 | – | –

Reference: the NIST ThermoML archive (doi:10.1021/acs.jced.9b00540)
